Reference: US20260315431A1, “NANOMATERIAL ENCAPSULATED BIOFILM INHIBITORS FOR DENTAL CARIES TREATMENT” (THE UAB RESEARCH FOUNDATION, priority 2023, published 2026)
Entries after “also recorded” stand apart in the source; their conditions may differ. Marks after values point to notes of the source that are not given here.

Tests used:
S. gordonii DL1 = assay: Planktonic growth, S. gordonii DL1 (OD470); format: cell-based, Streptococcus gordonii
Procedure: The bacterial strains, S. mutans UA159, S. gordonii DL1, and S. sanguinis SK36 were inoculated statically at 37° C. under 5% CO2 in Todd Hewitt Broth (THB) for 24 h. The cultures were then diluted with fresh THB (1:5) and reinoculated until optical density at 470 nm (OD470) reached 1. The optical density was read using BioTek 800TS microplate reader at 470 nm for bacterial growth and 562 nm for biofilm stained with crystal violet. Data was plotted in Graphpad Prism9.
(§1) S. mutans, S. gordonii, and S. sanguinis growth assays. Effects of compounds on S. mutans and commensal bacterial growth were evaluated using the growth assay as described^69. S. mutans UA159, S. gordonii DL1, S. sanguinis SK36, cultures were grown for 24 h under 5% CO2 at 37° C. These cultures were then reinoculated with fresh THB (1:5) until OD470=1 when the bacteria were ready to be used. Different concentrations of the inhibitor were assayed in chemically defined media (CDM) with 1% of the bacteria, 1% sucrose and 1% DMSO in 96 well plates. The 96 well plates were incubated under 5% CO2 at 37° C. for 16 h. Growth of the bacteria was read after 16 h at OD470. Each assay was carried out at least in triplicate.
All bacterial strains (S. mutans UA159, S. gordonii DL1, and S. sanguinis SK36) were inoculated statically at 37° C. under 5% CO2 environment in Todd Hewitt Broth (THB) for 24 h^[61]. The cultures were then diluted with fresh THB (1:5) and reinoculated until the optical density at 470 nm reaches 1. The optical density was read using BioTek 800 TS absorbance reader at 470 nm for bacterial growth and 562 nm for biofilm stained with crystal violet. Data was plotted in Prism 10.0.2.
as §1, with “Effects” for “S. mutans, S. gordonii, and S. sanguinis growth assays. Effects”, “PEHA5, PEHA6, HA5 or HA6” for “compounds”, “described^[62].” for “described^69.”, “PEHA5, PEHA6, HA5 or HA6” for “inhibitor”, “CDM” for “chemically defined media (CDM)”

S. mutans UA159 = assay: Gnotobiotic rat model of dental caries (HEBI / HA5 study, Example 1); format: in vivo, Fischer 344 rats infected with S. mutans UA159; set-up: key to Buccal Mean Caries Scores (±SEM) E / Buccal Mean Caries Scores (±SEM) Ds / Buccal Mean Caries Scores (±SEM) Dm / Buccal Mean Caries Scores (±SEM) Dx / Sulcal Mean Caries Scores (± SEM) E / Sulcal Mean Caries Scores (± SEM) Ds / Sulcal Mean Caries Scores (± SEM) Dm / Sulcal Mean Caries Scores (± SEM) Dx / Proximal Mean Caries Scores (± SEM) E: caries scores by the method of Keyes; details: for CFU/mL BAP: Blood Agar Plates; for CFU/mL BAP / CFU/mL MS / Buccal Mean Caries Scores (±SEM) Dx / Sulcal Mean Caries Scores (± SEM) Dx / Buccal Mean Caries Scores (±SEM) Dm / Sulcal Mean Caries Scores (± SEM) Dm / Buccal Mean Caries Scores (±SEM) Ds / Sulcal Mean Caries Scores (± SEM) Ds / Buccal Mean Caries Scores (±SEM) E / Proximal Mean Caries Scores (± SEM) E / Sulcal Mean Caries Scores (± SEM) E: 100 μM (NaF 250 ppm), 4 weeks; for CFU/mL MS: Mitis Salivarius agar; for Buccal Mean Caries Scores (±SEM) Dx / Sulcal Mean Caries Scores (± SEM) Dx: dentinal extensive; for Buccal Mean Caries Scores (±SEM) Dx / Sulcal Mean Caries Scores (± SEM) Dx / Buccal Mean Caries Scores (±SEM) Dm / Sulcal Mean Caries Scores (± SEM) Dm / Buccal Mean Caries Scores (±SEM) Ds / Sulcal Mean Caries Scores (± SEM) Ds / Buccal Mean Caries Scores (±SEM) E / Proximal Mean Caries Scores (± SEM) E / Sulcal Mean Caries Scores (± SEM) E: topical twice daily; for Buccal Mean Caries Scores (±SEM) Dm / Sulcal Mean Caries Scores (± SEM) Dm: dentinal moderate; for Buccal Mean Caries Scores (±SEM) Ds / Sulcal Mean Caries Scores (± SEM) Ds: dentinal slight; for Buccal Mean Caries Scores (±SEM) E / Proximal Mean Caries Scores (± SEM) E / Sulcal Mean Caries Scores (± SEM) E: enamel
Procedure: Reduction of S. mutans virulence in vivo by HA5 or HEBI. The effects of compound HA5 and HEBI on S. mutans virulence were evaluated using a well-established gnotobiotic rat model of dental caries 67. Hydrogel microparticles with no drug were used to ensure that the observed anti-virulence activity observed with HEBI was not related to the hydrogel material. The standard NaF (250 ppm) was included as a positive control. A (vehicle+infection only) group was included as a negative control. All rats in the experimental groups and control groups were colonized with S. mutans UA159. […] Similar reductions in caries scores were also observed in proximal enamel caries scores (Table 3). An evaluation of the effect of the treatment on proximal dentinal scores was unable to be performed as there were no significant proximal dentinal lesions for the control and treated groups in this study. […] The observed reduction in caries scores by HA5 and HEBI were similar with HEBI displaying slightly better in vivo activity, possibly due to the pH-dependent slow release. The observed reduction in caries scores by HA5 or HEBI is lower than the 250 ppm NaF treatment. However, it should be noted that the concentration of NaF (250 ppm=5.95 mM) is about 59-fold higher than HA5 (100 μM). At the end of the study, the animals were euthanized, their mandibles excised for microbiological analysis of plaque samples on MS agar plates and BAP and for scoring of caries by the method of Keyes^68 to determine the bacterial colonization. […] All in vivo experimental protocols were approved by the University of Alabama at Birmingham Institutional Animal Care and Use Committee (protocol No: IACUC-20047). The methods were carried out in accordance with the relevant guidelines and regulations.
Rat model of dental caries. In vivo studies of colonization and virulence of S. mutans were evaluated using a previously reported rat model of dental caries^71. Offspring of gnotobiotic Fischer 344 rats used in this experiment were bred and maintained in trexler isolators. Male and female rat pups were removed from isolators at 20 days of age and randomly assigned into 5 treatment groups of 5 rats/group in cages with filter tops. Rats were then infected with S. mutans UA159 strain by oral swabbing daily for four consecutive days with a fresh overnight culture of S. mutans UA159. Rats were provided with caries promoting Teklad Diet 305 containing […] (Harlan Laboratories, Inc., Indianapolis, IN) and sterile drinking water ad libitum. Oral swabs were taken 5 days post-infection and plated on Todd Hewitt (TH) agar plates and incubated at 37° C. in an environment of 5% CO2 in the air to confirm colonization. Rats were weighed at weaning and at the termination of the experiment. One-week post-infection, the molars of the rats were treated topically twice daily for 4 weeks with the test compounds using camel-hair brushes. The five treatment groups used in this study were: 1) HEBI (100 μM); 2) HA5 (100 μM); 3) hydrogel encapsulated PBS (no drug) containing 0.1% DMSO (negative control), 4) 250 ppm NaF (positive control) and 5) infected untreated group (negative control). Drinking water was withheld for 60 min following each treatment with the compound. Animals were weighed at weaning and at the termination of the experiment. On day 60, the rats were sacrificed using CO2 followed by cervical dislocation or bilateral thoracotomy. The mandibles were surgically removed and cleaned of excess tissue to assess the level of bacteria present and the extent of caries formation. The right mandibles from each rat were placed in a tube containing phosphate buffer (3 mL), placed on ice and sonicated (10 sec) to release bacteria from the molars. Each sample was serially diluted, plated on blood agar plates (BAP) and mitis-salivarius (MS) agar plates and incubated in an environment of 5% CO2 at 37° C. to quantify the level of total bacteria and S. mutans present in the plaque. […]

O=C1/C(=C/c2cc(O)c(O)cc2O)Oc2ccccc21 [HA5, 2-[(2′,4′,5′-Trihydroxyphenyl)methylidene]-2,3-dihydro-1-benzofuran-3-one]
planktonic growth of S. gordonii (S. gordonii DL1; 25 μM): did not affect the planktonic growth | growth of S. gordonii (S. gordonii DL1; 50 μM and 100 μM (100 μM)): did not inhibit the growth; also recorded: does not inhibit the growth | dose without growth inhibition of commensals (100 μM) relative to biofilm IC50 (S. gordonii DL1; DL1): 14 fold | growth of S. gordonii (S. gordonii DL1; at biofilm inhibiting doses): without affecting the growth | effect on bacterial colonization (S. mutans UA159; 4-week treatment, 100 μM): not significant; also recorded: without affecting the bacterial colonization significantly | reduction in caries scores (S. mutans UA159; 4-week treatment, 100 μM): significant reduction in buccal, sulcal, and proximal dental caries scores | CFU/mL BAP (S. mutans UA159): 3.0 ± 1.0 CFU/mL (×10^6) | CFU/mL MS (S. mutans UA159): 2.5 ± 0.8 CFU/mL (×10^6) | Buccal Mean Caries Scores (±SEM) Dx (S. mutans UA159): 2.0 ± 0.7 | Sulcal Mean Caries Scores (± SEM) Dx (S. mutans UA159): 4.4 ± 0.9 | Buccal Mean Caries Scores (±SEM) Dm (S. mutans UA159): 3.8 ± 0.2 | Sulcal Mean Caries Scores (± SEM) Dm (S. mutans UA159): 8.8 ± 0.9 | Buccal Mean Caries Scores (±SEM) Ds (S. mutans UA159): 6.0 ± 0.4 | Sulcal Mean Caries Scores (± SEM) Ds (S. mutans UA159): 16.2 ± 0.4 | Buccal Mean Caries Scores (±SEM) E (S. mutans UA159): 11.0 ± 0.3 | Proximal Mean Caries Scores (± SEM) E (S. mutans UA159): 4.0 ± 0.0 | Sulcal Mean Caries Scores (± SEM) E (S. mutans UA159): 22.0 ± 0.6

O=C1/C(=C/c2cc(O)c(O)c(O)c2)Oc2ccccc21 [HA6, 2-[(3′,4′,5′-Trihydroxyphenyl)methylidene]-2,3-dihydro-1-benzofuran-3-one]
growth inhibition of S. gordonii (S. gordonii DL1; 25 μM and 50 μM): about 10% | growth of S. gordonii (S. gordonii DL1; at biofilm inhibiting doses): without affecting the growth

[F-].[Na+] [NaF, reference compound]
CFU/mL BAP (S. mutans UA159): 4.0 ± 0.9 CFU/mL (×10^6) | CFU/mL MS (S. mutans UA159): 3.4 ± 0.5 CFU/mL (×10^6) | Buccal Mean Caries Scores (±SEM) Dx (S. mutans UA159): 0.0 ± 0.0 | Sulcal Mean Caries Scores (± SEM) Dx (S. mutans UA159): 1.0 ± 0.3 | Buccal Mean Caries Scores (±SEM) Dm (S. mutans UA159): 1.0 ± 0.8 | Sulcal Mean Caries Scores (± SEM) Dm (S. mutans UA159): 4.6 ± 0.2 | Buccal Mean Caries Scores (±SEM) Ds (S. mutans UA159): 2.4 ± 0.8 | Sulcal Mean Caries Scores (± SEM) Ds (S. mutans UA159): 11.2 ± 0.4 | Buccal Mean Caries Scores (±SEM) E (S. mutans UA159): 5.0 ± 0.7 | Proximal Mean Caries Scores (± SEM) E (S. mutans UA159): 1.2 ± 0.8 | Sulcal Mean Caries Scores (± SEM) E (S. mutans UA159): 14.2 ± 0.7
